Measurements reported in patent US12150940B2, “WASp-protecting small molecules, compositions, methods and uses thereof in the treatment of innate and acquired immune-related disorders or conditions” (BAR ILAN UNIVERSITY, priority 2016, dated 2024).
Peptide text beside a SMILES is read from it. * marks the point of attachment. Cbz = O=C(OCc1ccccc1)*

Experiments:
WASp = WASp expression in Meg-01 megakaryocyte cell line (western blot); type: cell-based, human; details: Meg-01 cells, treated vs untreated
Description: Freshly-isolated platelets were stimulated with 10 μM of TRAP-6 for the indicated time points, followed by lysis. WIP (FIG. 7A) or WASp (FIG. 7B) were immunoprecipitated from the lysates and analyzed by western blot for co-immunoprecipitation, using anti-WASp, anti-WIP or anti-PKCθ antibodies. WASp immunoprecipitates were immunoblotted for WASp ubiquitylation using anti-ubiquitin (Ub) antibody (FIG. 7C). Ubiquitylated WASp appears as a smear of bands above the MW of 65 kDa with a prominent band at ˜81 kDa. […] Blots are representative of three independent experiments. Meg-01 megakaryocyte cell line was activated in the presence (+) or absence (−) of MG132, followed by lysis (FIG. 7E). WASp ubiquitylation was determined by co-immunoprecipitation analysis as in FIG. 7C. FIG. 7F illustrates Meg-01 cells that were transfected with PKCθ-specific siRNA (+) or non-specific (NS) siRNA (−). 24 h later, the cells were stimulated and lysed. PKCθ and WASp protein expression levels were analyzed by western blot with anti-PKCθ and anti-WASp antibodies, and with anti-GAPDH as loading control. Relative protein expression was determined by densitometric analysis and is presented below the corresponding lanes. […] Blots are representative of three independent experiments.
Human primary PBMCs were isolated from whole blood of healthy donors, as previously described (Barda-Saad et al, 2005). […]

[1] = test system: WAS−/−/WASp Y107C Jurkat T-cells; assay: Lymphocyte migration on ICAM-1/SDF-1α, WAS−/−/WASp Y107C cells; type: cell-based, human
Description: WASp knockout Jurkat T-cell lines that express only exogenous YFP-WASp R86C (WAS^−/−/WASp R86C) or Y107C (WAS^−/−/WASp Y107C) were pretreated with SMC #34 in comparison to cells treated with the control. Cells that completely lack WASp expression (WAS^−/−) were also treated with the control. Cellular migration was tracked over a 20-min period on ICAM-1/SDF-1α-coated cover glasses, as described in Experimental procedures.
Approximately 1×10^5 lymphocytes were seeded over chambered coverslips (LabTek) pre-coated with 6 μg/ml ICAM-1 and 2 μg/ml SDF-1α. Cells were incubated at 37° C., 5% CO2 and DIC images were acquired with the Zeiss Observer Z1 inverted microscope every 5 s for 20 min under a 20× objective lens using Zen software. The random movement (Displacement and velocity) of the cells was automatically tracked and analyzed using TrackMate plugin of ImageJ software. An individual trace was assigned to each of the analyzed cells.

Row | SMILES | WASp in whole cell lysates (W.C.L) (WASp) | migration ([1]; WAS−/−/WASp Y107C cells, vs control) | mean cell displacement ([1]; WAS−/−/WASp Y107C, 20 min, mean ± SE)
1 | CC(C)C[C@@H](C=O)NC(=O)[C@H](CC(C)C)NC(=O)[C@H](CC(C)C)NC(=O)OCc1ccccc1 [MG132] (Cbz-Leu-Leu-Leu-aldehyde) | more WASp was detected |  | 
2 | CC1CCCC(C)N1C(=O)CSc1nnc(COc2cccc3cccnc23)o1 (stereo not drawn) [SMC #34, 1-(2,6-dimethylpiperidin-1-yl)-2-[[5-(quinolin-8-yloxymethyl)-1,3,4-oxadiazol-2-yl]sulfanyl]ethanone] |  | significantly increased | 74.24±8.16
